Columns and labels:
pentosidine = experiment: Quantitative determination of pentosidine after reaction at 37° C. for 42 days; type: biochemical; conditions: for Pentosidine: 37° C., 42 days
Procedure: (§1) Amino acid, carbohydrates and a phosphate buffer solution were charged in a 50 mL polypropylene centrifuge tube in each amount shown in Table 10, followed by sealing and stirring, and then the mixture was reacted in an incubator at 37° C. for 42 days. Next, the reactant was filtered through a 0.2 μm filter and the obtained filtrate was used as a sample. Amino acid and carbohydrates used are as follows:
Using a pentosidine measurement kit “FSK Pentosidine (registered trademark)” (manufactured by Fushimi Pharmaceutical Co., Ltd.), quantitative determination of pentosidine was performed in the following manner. Thirty (30) or more minutes before use, reagents and pentosidine solid-phase plates were put to room temperature. After dilution of the sample, a 50 μL aliquot of the sample was dispensed to a pentosidine solid-phase plate attached to the kit, and 50 μL of a first antibody solution was dispensed into wells other than the wells for measurement of reagent blank value. After the sample and the antibody solution were mixed by shaking the plate at 300 rpm for 1 minute, the solution was reacted at 37° C. for 1 hour. Next, the reaction solution was discarded, and 200 μL of rinsing fluid was dispensed to wash the plate. The washing was performed for 3 times. After liquid on the plate was removed, 100 μl of a second antibody solution was dispensed into wells other than the wells for measurement of reagent blank value. After the solution was mixed by shaking the plate at 300 rpm for 1 minute, the solution was reacted at 25° C. for 1 hour. Then, the reaction solution was discarded, and the plate was washed for 3 times with 200 μL of rinsing fluid again. Liquid on the plate was removed, and 100 μL of a color coupler was dispensed and left to stand for 10 minutes under a light shielding condition. Finally, 100 μL of a reaction stop solution was dispensed, and within 10 minutes after the dispensing, measurement was performed at main wavelength 450 nm/reference wavelength 630 nm using a micro-plate reader. The concentration of pentosidine was determined using the calibration curve of a pentosidine standard solution, based on measurement values of the sample.
(§2) Biological proteins, carbohydrates and a phosphate buffer solution are charged in a 50 mL polypropylene centrifuge tube in each amount shown in Table 12, followed by sealing and stirring, and then the mixture was reacted in an incubator at 37° C. for 42 days. Next, the reactant was fractionated by centrifugation at 3,000 rpm for 3 hours using an ultrafiltration unit (VIVA SPIN 20, manufactured by Sartorius Corporation). The obtained low molecular weight fraction was used as a sample for determination of 3-DG, while the obtained high molecular weight fraction was used as a sample for the determination of fluorescent AGEs, pentosidine, CML, RAGE agonist activity and RAGE antagonist activity. Biological proteins and carbohydrates used are as follows:
(§3) In the same manner as in Test Example 4, except that the low molecular weight fraction prepared as mentioned above was used as a sample, quantitative determination of 3-DG was performed. In the same manner as in Test Example 4, except that the high molecular weight fraction was filtered through a 0.2 μm filter and the filtrate was used as a sample, fluorescent AGEs, pentosidine, CML, RAGE agonist activity and RAGE antagonist activity were evaluated.
(§4) Collagen, carbohydrates and a phosphate buffer solution were charged in a 50 mL polypropylene centrifuge tube in each amount shown in Table 14, followed by sealing and stirring, and then the mixture was reacted in an incubator at 37° C. for 42 days. Next, the reactant was fractionated by centrifugation at 3,000 rpm for 3 hours using an ultrafiltration unit (VIVA SPIN 20, manufactured by Sartorius Corporation). The obtained low molecular weight fraction was used as a sample for determination of 3-DG. […]

human RAGE = biological target: T1, human RAGE (Homo sapiens, UniProt Q15109); experiment: RAGE agonist activity of reaction samples (37° C., 42 days), NF-κB luciferase assay in C6 glioma cells; type: cell-based, rat
T1 construct: human RAGE plasmid (including full-length human RAGE cDNA); expressed in transfected cells; host or cells: C6 glioma cells carrying pNF-κB-Luc plasmid and human RAGE plasmid
T1 sequence (Q15109 23-404): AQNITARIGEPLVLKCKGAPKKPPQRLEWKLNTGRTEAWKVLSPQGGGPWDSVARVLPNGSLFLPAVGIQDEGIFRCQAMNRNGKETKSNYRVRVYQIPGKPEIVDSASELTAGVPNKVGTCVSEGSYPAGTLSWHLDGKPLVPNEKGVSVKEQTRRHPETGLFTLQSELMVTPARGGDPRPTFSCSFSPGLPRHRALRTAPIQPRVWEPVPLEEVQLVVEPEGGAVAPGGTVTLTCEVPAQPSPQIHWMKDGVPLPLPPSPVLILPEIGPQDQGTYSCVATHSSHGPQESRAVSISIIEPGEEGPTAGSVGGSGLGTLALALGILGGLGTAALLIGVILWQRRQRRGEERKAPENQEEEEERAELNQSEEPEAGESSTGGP
Procedure: as §1
Using Luciferase Assay System (manufactured by Promega Corporation), evaluation of RAGE agonist activity was performed. (Day 1) According to the methods disclosed in Diabetes, 2006, vol. 55, pp. 2510-2522, C6 glioma cells into which pNF-κB-Luc plasmid (manufactured by Stratagene Corporation) and human RAGE plasmid (including full-length human RAGE cDNA) have been introduced were seeded at 100 μL/well into a 96-well plate and cultured in a CO2 incubator until the cells were confluent. For the culture, 10% FBS/DMEM medium was used. (Day 2) The medium was removed, and after wells were washed with 300 μL of serum-free DMEM medium, 100 μL of 0.1% FBS/DMEM medium was slowly added. Then, the medium was incubated overnight in a CO2 incubator. (Day 3) The sample was diluted using the medium, and 50 μL of the diluted sample was added to each well. AGE-BSA in which AGE was formed with glyceraldehydes (50 μg/mL) was added to a control well. After incubation in a CO2 incubator for 4 hours, the medium was removed and wells were washed 2 times with 300 μL of PBS (−). Then, 25 μL of 1× lysis buffer was added on ice. After the plate was shaken for 15 seconds, 20 μL of lysate was charged in a new white plate. Further 100 μL of a luciferase assay reagent was added, and a […] was measured by a luminometer. Using 5 μl of lysate, quantitative determination of protein was also performed.
as §2, §3
as §4, with “3-DG. Meanwhile, 0.4 g of a high molecular weight fraction and 8 mL of 6N hydrochloric acid were charged in an ampule and the air in the ampule was replaced with nitrogen, and then hydrolysis was performed at 110° C. for 16 hours in a heat block. After reaction, 8 mL of 5N sodium hydroxide was added, and pH was adjusted using 1N hydrochloric acid and 1N sodium hydroxide to make pH within a range of 7.2 to 7.6. Then, the solution was filtered through a 0.2 μm filter.” for “3-DG.”

[1] = Test Example 4, amino acid 0.4 g + carbohydrate 1.8 g
[2] = Test Example 5, bovine serum albumin 0.4 g + carbohydrate 1.8 g
[3] = Test Example 5, human serum albumin 0.4 g + carbohydrate 1.8 g
[4] = Test Example 5, γ-globulin 0.4 g + carbohydrate 1.8 g
[5] = Test Example 6, collagen 0.015 g + carbohydrate 1.8 g, hydrolysed high molecular weight fraction
[6] = Test Example 4, amino acid + carbohydrate, amount of protein 100 μg/mL, relative to control (AGE-BSA) = 1
[7] = Test Example 5, bovine serum albumin + carbohydrate, protein 100 μg/mL, relative to control (AGE-BSA) = 1
[8] = Test Example 5, human serum albumin + carbohydrate, protein 100 μg/mL, relative to control (AGE-BSA) = 1
[9] = Test Example 5, γ-globulin + carbohydrate, protein 10 μg/mL, relative to control (AGE-BSA) = 1
[10] = Test Example 6, collagen + carbohydrate, protein 10 μg/mL, relative to control (AGE-BSA) = 1
[11] = Test Example 5, bovine serum albumin, human serum albumin, γ-globulin, compared with sections containing fructose
[12] = Test Example 5, bovine serum albumin, human serum albumin, γ-globulin, compared with sections containing glucose
[13] = Test Example 6, collagen, compared with sections containing glucose and fructose

Compound: O=C(CO)[C@@H](O)[C@H](O)[C@H](O)CO [Fructose]
- Pentosidine (pentosidine; [1]): 24.7 nmol/1 mL of reaction solution
- Pentosidine (pentosidine; [2]): 0.03 nmol/1 mL of reaction solution
- Pentosidine (pentosidine; [3]): 0.05 nmol/1 mL of reaction solution
- Pentosidine (pentosidine; [4]): 0.005 nmol/1 mL of reaction solution
- Pentosidine (pentosidine; [5]): 0.15 nmol/1 mL of reaction solution
- RAGE agonist activity (human RAGE; [6]): 0.08
- RAGE agonist activity (human RAGE; [7]): 0.33
- RAGE agonist activity (human RAGE; [8]): 0.02
- RAGE agonist activity (human RAGE; [9]): 0.04
- RAGE agonist activity (human RAGE; [10]): 0.58

Compound: O=C[C@H](O)[C@@H](O)[C@H](O)[C@H](O)CO [Glucose]
- Pentosidine (pentosidine; [1]): 5.8 nmol/1 mL of reaction solution
- Pentosidine (pentosidine; [2]): 0.01 nmol/1 mL of reaction solution
- Pentosidine (pentosidine; [3]): 0.02 nmol/1 mL of reaction solution
- Pentosidine (pentosidine; [4]): 0.002 nmol/1 mL of reaction solution
- Pentosidine (pentosidine; [5]): 0.06 nmol/1 mL of reaction solution
- RAGE agonist activity (human RAGE; [6]): 0.06
- RAGE agonist activity (human RAGE; [7]): 0.37
- RAGE agonist activity (human RAGE; [8]): 0.01
- RAGE agonist activity (human RAGE; [9]): 0.06
- RAGE agonist activity (human RAGE; [10]): 0.45

Compound: OC[C@@H](O)[C@@H](O)[C@H](O)[C@@H](O)CO [Sorbitol]
- Pentosidine (pentosidine; [1]): 0.8 nmol/1 mL of reaction solution
- production of pentosidine (pentosidine; Test Example 4, amino acid, compared with sections containing glucose and fructose): decreased
- Pentosidine (pentosidine; [2]): 0.03 nmol/1 mL of reaction solution
- production of pentosidine (pentosidine; [11]): decreased
- production of pentosidine (pentosidine; [12]): decreased
- Pentosidine (pentosidine; [3]): 0.02 nmol/1 mL of reaction solution
- Pentosidine (pentosidine; [4]): 0.002 nmol/1 mL of reaction solution
- Pentosidine (pentosidine; [5]): 0.05 nmol/1 mL of reaction solution
- production of pentosidine (pentosidine; [13]): decreased
- RAGE agonist activity (human RAGE; [6]): 0.07
- RAGE agonist activity (human RAGE; Test Example 4, amino acid, compared with the test section 2 containing fructose): decreased
- RAGE agonist activity (human RAGE; [7]): 0.24
- RAGE agonist activity (human RAGE; [11]): decreased
- RAGE agonist activity (human RAGE; [12]): decreased
- RAGE agonist activity (human RAGE; [8]): 0.02
- RAGE agonist activity (human RAGE; [9]): 0.06
- RAGE agonist activity (human RAGE; [10]): 0.27
- RAGE agonist activity (human RAGE; [13]): decreased

From patent publication US20130287890A1, “INHIBITOR OF THE PRODUCTION OF ADVANCED GLYCATION END PRODUCTS” (UENO FINE CHEMICALS INDUSTRY, LTD., priority 2012, published 2013)
